SMILES strings stand for the structures. Like-named read-outs stand apart in the source and are kept apart here. A value given as a limit tells only on which side of the number the result lay.

For test [1], the target named is T1, Blepharisma japonicum HPPD (SEQ ID No. 5) (Blepharisma japonicum, UniProt A8R3H6). As to the kind of experiment: biochemical. The conditions noted are these: for inhibition at 5 µM: read-out: percentage of inhibition.
Test [2] addresses T2, Arabidopsis thaliana HPPD (SEQ ID No. 10) (Arabidopsis thaliana, UniProt P93836).
T2 construct: made in house; host or cells: E. coli K-12 BL21 (pQE30-AtHPPD)
T2 sequence (P93836 with tags, fused parts or gaps): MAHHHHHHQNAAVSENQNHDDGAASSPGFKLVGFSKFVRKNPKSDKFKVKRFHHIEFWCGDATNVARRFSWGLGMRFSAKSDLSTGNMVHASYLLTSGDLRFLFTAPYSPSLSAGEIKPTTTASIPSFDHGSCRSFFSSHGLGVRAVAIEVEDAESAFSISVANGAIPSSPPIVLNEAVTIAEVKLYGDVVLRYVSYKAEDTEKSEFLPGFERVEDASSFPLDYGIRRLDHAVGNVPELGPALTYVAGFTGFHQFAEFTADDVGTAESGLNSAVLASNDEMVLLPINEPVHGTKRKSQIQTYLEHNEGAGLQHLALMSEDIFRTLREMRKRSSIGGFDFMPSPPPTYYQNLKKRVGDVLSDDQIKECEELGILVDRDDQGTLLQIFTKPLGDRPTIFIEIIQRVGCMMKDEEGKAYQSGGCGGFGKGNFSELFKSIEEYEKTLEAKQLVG
As to the kind of experiment: Spectrophotometric HPPD activity assay in presence of HPPD inhibitors. It is filed as biochemical. To be noted: for inhibition at 5 µM: read-out: percentage of inhibition.

For test [3], the system named is leaf disks of tobacco plants containing HPPD SEQ ID No. 7 (Blepharisma japonicum). Description: Leaf disk regeneration on media with HPPD inhibitors. The conditions noted are these: 10^−6 M, 6 weeks. Also on record: key to the marks not given beside the values. It is filed as cell-based, Nicotiana tabacum. The procedure:
(§1) At the end of the experiments the level of regeneration was evaluated as followed:
(§2) “−” means that the leaf disks looked the same as leaf disk from wild type tobacco plants on media supplemented with the inhibitor mentioned above. “++++” means that the leaf disks looked like the leaf disks from the wild type tobacco plants on media without inhibitor. “+”, “++”, and “+++” indicate regenerated leaf disks were heavily (+), medium (++) and less (+++) affected by the presence of the inhibitors.

In test [4] the test system is leaf disks of tobacco plants containing HPPD SEQ ID No. 11 (Arabidopsis thaliana). The description is as above. It is filed as cell-based, Nicotiana tabacum. To be noted: 10^−6 M, 6 weeks. The procedure:
as §1, §2

Test [5] concerns T1 tobacco plants carrying FMP37e (kanamycin selected). As to the kind of experiment: Glasshouse response to bicyclopyrone, injury classes. It is filed as in vivo, Nicotiana tabacum. The conditions noted are these: 7 DAT. The text has this:
(§3) Seeds of wild type tobacco plants and T1 tobacco plants carrying the gene from Blepharisma japonicum FMP37e coding for HPPD were sown on MS media (Murashige and Skoog […]) supplemented with […] kanamycin. After 4 weeks, rooted green plantlets were transferred to soil and grown for 3 weeks in the glasshouse as described above then sprayed with a mixture containing bicyclopyrone (100 g Al/ha), ammonium sulfate and methyl ester raps oil. The plants were classified in two categories based on the phenotype developed in response to the herbicide seven days after the treatment. […] In this case, only plants containing at least one T-DNA were exposed to the herbicidal treatment.

A further test deals with wild type tobacco plants. Described as above. It is filed as in vivo, Nicotiana tabacum. The conditions noted are these: WT, 100 g Al/ha, 7 DAT.
Source text: as §3

Test [6] addresses T1, Blepharisma japonicum HPPD (SEQ ID No. 5). As to the kind of experiment: HPLC assay of HPPD in vitro kinetic properties. It is filed as biochemical. The procedure:
Km, Vmax, and kcat values for different HPPD enzyme preparations and Ki, K1=Kon, and K−1=Koff for different HPPD inhibitors were determined using a HPLC assay for measurements of HPPD activity. […] All assays were started by the addition of HPPD enzyme to the assay mixture and stopped at a series of times between 0 and 240 s by addition of 200 μl of the reaction mixture to reaction assay tubes containing 20 μl 10% perchloric acid. Precipitated protein was pelleted by a 5 minute centrifugation at 10,000 g. […] A standard set of concentrations of HGA were used to provide a standard curve in order to calibrate the 292 nm absorbance of the HGA peak versus HGA concentration.
For Km and Vmax value determinations the initial rates of the HPPD reaction at different substrate concentrations were determined from plots of HGA formed versus time and fitted to the Michaelis-Menten equation for unireactant enzymes using the ID Business Solutions Ltd. (www.idbs.com) XLfit software suite. For the determination of Ki, K1=Kon, and Ki=Koff values the time-courses of the HPPD reaction at different inhibitor concentrations were fitted to the equations for Mechanism A, competitive inhibition, for tight-binding inhibitors (Cha, S. (1975) Tight-binding inhibitors—I. Kinetic behaviour. Biochemical Pharmacology 24, 2177-2185) using the ID Business Solutions Ltd. XLfit software suite

Test [7] relates to tobacco plants with FMP37t-h, PAT and 2mEPSPS (pFCO112). Description: Glasshouse trial of tobacco with three tolerance genes. It is filed as in vivo, Nicotiana tobacum. The conditions noted are these: 9 DAT. The procedure: A binary vector for tobacco transformation is, for example, constructed with the CaMV35 promoter driving the expression of the gene FMP37t-h (SEQ ID No. 15), with a codon usage optimized for the expression in dicotyledoneous plants and at its 5′ extremity was added a sequence coding for an OTP, and further upstream a sequence TEV (Tobacco etch virus) to improve the stability of the mRNA in plants followed by the CaMV35S terminator. The nucleotide sequence of the gene FMP37t-h is given in SEQ ID No. 15. Additionally, the transformation vector also contains a PAT gene cassette in which the gene is driven by a CaVM35S promoter and followed by a CaMV35S terminator for glufosinate based selection during the transformation process and a 2mEPSPS gene cassette in which the gene is driven by an histone promoter from Arabidopsis to confer tolerance to the herbicide glyphosate to the transformed plants (see FIG. 3 H). The binary vector was called pFCO112. The above vector was used to transform leaf disks obtained from Nicotiana tobacum plants, according to Example 3.
Transgenic tobacco plants were transferred to the greenhouse and treated with glyphosate at a rate of 1121 g Al/ha. Seeds were produced from such tolerant tobacco plants and harvested. These seeds were put on soil to germinate in the glasshouse. Three to four weeks later, 50 plantlets per event were transferred to single pots. Two weeks later, plants of a size 4-6 cm were sprayed either with:
[…] […] Non-transgenic tobacco plants were completely killed by treatment using one or more of the above herbicides.

Test [8] addresses T2, Arabidopsis thaliana HPPD (SEQ ID No. 10). As to the kind of experiment: HPLC assay of HPPD in vitro kinetic properties. To be noted: substrate HPP 10-400 μM, pH 7.8. It is filed as biochemical. The procedure:
Km, Vmax, and kcat values for different HPPD enzyme preparations and Ki, K1=Kon, and K−1=Koff for different HPPD inhibitors were determined using a HPLC assay for measurements of HPPD activity. […] All assays were started by the addition of HPPD enzyme to the assay mixture and stopped at a series of times between 0 and 240 s by addition of 200 μl of the reaction mixture to reaction assay tubes containing 20 μl 10% perchloric acid. Precipitated protein was pelleted by a 5 minute centrifugation at 10,000 g.
For Km and Vmax value determinations the initial rates of the HPPD reaction at different substrate concentrations were determined from plots of HGA formed versus time and fitted to the Michaelis-Menten equation for unireactant enzymes using the ID Business Solutions Ltd. (www.idbs.com) XLfit software suite.

[9] abbreviates: 5.0 × 10^−6M inhibitor (Table 4).
Setting [10] is: substrate HPP 10-400 μM, pH 7.8.

T1 sequence (A8R3H6 entry or part of it): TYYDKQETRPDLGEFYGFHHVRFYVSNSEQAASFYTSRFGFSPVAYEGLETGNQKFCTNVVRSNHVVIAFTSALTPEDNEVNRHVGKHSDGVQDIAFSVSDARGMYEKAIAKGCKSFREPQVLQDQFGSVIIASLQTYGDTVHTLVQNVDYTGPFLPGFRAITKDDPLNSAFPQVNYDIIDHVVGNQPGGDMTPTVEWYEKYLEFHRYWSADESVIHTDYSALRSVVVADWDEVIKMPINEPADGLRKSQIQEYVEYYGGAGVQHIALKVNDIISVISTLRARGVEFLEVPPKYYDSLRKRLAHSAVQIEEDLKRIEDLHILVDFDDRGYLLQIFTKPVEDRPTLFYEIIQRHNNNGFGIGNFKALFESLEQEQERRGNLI

As to `Cc1ccc(C(=O)COc2c(C(=O)c3ccc(Cl)c(C)c3Cl)c(C)nn2C)cc1` [Benzofenap], the IC50 in test [1] (read-out: pI50 (converted)) was 3.16 µM; in test [2] (read-out: pI50 (converted)), less than 2.51 µM. Moreover, the inhibition at 5 µM amounted to 85% in test [1] and 90% in test [2].

Consider `CS(=O)(=O)c1ccc(C(=O)C2C(=O)CCCC2=O)c([N+](=O)[O-])c1` [Mesotrione, 2-[4-(methylsulfonyl)-2-nitrobenzoyl]-1,3-cyclohexanedione], for which, in [2], the IC50 was less than 2.51 µM. Moreover, in test [2] (setting [9]), the inhibition at 5 µM turned out to be 86%. The figures for the “level of regeneration of leaf disks” value in test [3] and in [4] were “++++” and “−”, respectively.

In the case of `COCCOCc1nc(C(F)(F)F)ccc1C(=O)C1=C(O)C2CCC(C2)C1=O` (stereo not drawn) [Bicyclopyrone, 4-hydroxy-3-[[2-[(2-methoxyethoxy)methyl]-6-(trifluoromethyl)-3-pyridinyl]carbonyl]bicyclo[3.2.1]oct-3-en-2-one], the “% of tolerant plant” value in [5] (line 113, 100 g Al/ha) was 56%; in [5] (line 207, 100 g Al/ha), more than 60%; in [5] (line 208, 100 g Al/ha), 67%. The “number of plants in Class I (injury: 0-30%)” value came to 60 in test [5] (line 113, 100 g Al/ha); 65 in [5] (line 207, 100 g Al/ha); 44 in test [5] (line 208, 100 g Al/ha); 0 with wild type tobacco plants. For the same compound, the “number of plants in Class II (injury: 31-100%)” value in test [5] (line 113, 100 g Al/ha) is recorded as 78; in test [5] (line 207, 100 g Al/ha) it was more than 100; in test [5] (line 208, 100 g Al/ha) it was 90; with wild type tobacco plants, 12. The figures for the IC50 in [1] (read-out: pI50 (converted)) and in test [2] were 200 µM and 6.31 µM, respectively. Moreover, the inhibition at 5 µM turned out to be 0% in [1] and 29% in test [2]. For the same compound, the figures for the “level of regeneration of leaf disks” value in test [3] and in test [4] were “++++” and “−”, respectively.

For the compound `Cc1ccc(S(=O)(=O)Oc2c(C(=O)c3ccc(Cl)cc3Cl)c(C)nn2C)cc1` [Pyrazolate], the IC50 in [1] is 20 µM; in [2] (read-out: pI50 (converted)), 3.98 µM. The values for the inhibition at 5 µM in test [1] and in test [2] (setting [9]) were 0% and 61%, respectively.

`CS(=O)(=O)c1ccc(C(=O)C2C(=O)CCCC2=O)c(Cl)c1COCC1CCCO1` (stereo not drawn) [Tefuryltrione, 2-[2-chloro-4-(methylsulfonyl)-3-[[(tetrahydro-2-furanyl)methoxy]methyl]benzoyl]-1,3-cyclohexanedione]: the inhibition at 5 µM in [2] (setting [9]) was determined as 100%.

In test [6], `CS(=O)(=O)c1cc(C(F)(F)F)ccc1C(=O)C(C#N)C(=O)C1CC1` (stereo not drawn) [Diketonitrile, 2-cyano-3-cyclopropyl-1-(2-methylsulphonyl-4-trifluoromethylphenyl)-propane-1,3-dione] had a Ki of 6.6 µM. Moreover, the inhibition at 5 µM in [2] (setting [9]) came out at 87%.

Take `CP(=O)(O)CCC(N)C(=O)O` (stereo not drawn) [Glufosinate-ammonium]: in [7] (line 634, 1000 g AI/ha), the “number of plants in Class I (no injuries)” value (from here on “number … (no injuries)”) is 10, the “number of plants in Class II (injury: 10-40%)” value (“number … (injury: 10-40%)” for short) is given as 0 and the “number of plants in Class III (injury: 41-100%)” value (“number … (injury: 41-100%)” for short) stood at 0. Further, in test [7] (line 713, 1000 g AI/ha), the “number … (no injuries)” value was found to be 10, the “number … (injury: 10-40%)” value was 0 and the “number … (injury: 41-100%)” value worked out at 0.

In the case of `CS(=O)(=O)c1ccc(C(=O)C2C(=O)CCCC2=O)c(Cl)c1` [Sulcotrione, 2-[2-chloro-4-(methylsulfonyl)benzoyl]-1,3-cyclohexanedione], in test [2], the IC50 was less than 2.51 µM and the inhibition at 5 µM worked out at 74%.

With `O=C(O)C(=O)Cc1ccc(O)cc1` [HPP, para-hydroxyphenylpyruvate], in test [6] (setting [10]), the Km came to 83 µM and the Vmax is 0.1 µM. Moreover, in test [8], the Km was found to be 6.3 µM and the Vmax turned out to be 1.2 µM.

`O=C(O)CNCP(=O)(O)O` [Glyphosate]: in test [7] (line 634, 1121 g AI/ha), the “number … (no injuries)” value came to 10, the “number … (injury: 10-40%)” value turned out to be 0 and the “number … (injury: 41-100%)” value is 0. Also, in test [7] (line 713, 1121 g AI/ha), the “number … (no injuries)” value was found to be 10, the “number … (injury: 10-40%)” value was 0 and the “number … (injury: 41-100%)” value is 0.

For the compound `Cc1nn(C)c(O)c1C(=O)c1ccc(C(F)(F)F)cc1S(C)(=O)=O` [Pyrasulfotole], the pI50 in test [1] (2 mM HPP, 3 minutes incubation) is 4.4; in test [2] (2 mM HPP, 3 minutes incubation), 5.4. Further, the percentage of inhibition is 0% in test [1] (setting [9]) and 69% in test [2] (setting [9]).

As a reminder, the inhibition is the drop in the measured response relative to a control, in per cent. What is called Ki is the dissociation constant of the complex between target and ligand, obtained from inhibition or displacement. A word on the Km: it is the substrate concentration at which the rate is half of its maximum.
